Data on 12 compounds can be found in patent US20120122923A1, “DUAL MOLECULES CONTAINING A PEROXIDE DERIVATIVE, THEIR SYNTHESIS AND THERAPEUTIC USES” (SANOFI-AVENTIS, priority 2006, published 2012).

What is called melting point is the temperature of the solid-liquid transition.

SMILES strings stand for the structures. Where two headings read alike, the source gives them in different places.

Data set [1] in a line: Metabolic stability on human hepatic microsomes. The class given is in vitro ADME. To be noted: for Percentage metabolization: human hepatic microsomes 1 mg/ml, 5 μM substrate, 1 mM NADPH, 20 minutes at 37° C., degradation with respect to T0. The procedure: These experiments were carried out on human hepatic microsomes in the presence of NADPH cofactor, necessary for the activity of the principal enzymes, namely cytochromes P-450 (CYP) and flavine mono-oxygenases (FMO). […] After 20 minutes, the reaction was stopped by adding 1 volume of acetonitrile. The supernatant was then removed after centrifuging (speed 3000 g for 10 minutes at 4° C.). The supernatant was analysed by high performance liquid chromatography coupled to a mass spectrometer (LC-MS/MS) and the degradation of each of the test compounds was calculated as a percentage (%) with respect to T0. The microsomal fractions were prepared from human hepatic tissue deriving from at least 12 different donors and frozen at −80° C. The tissue was defrosted then dried, weighed and cut into thin sheets before homogenizing. The tissue was homogenized using a Potter-Elvejheim type homogenizer at +4° C. The tissue homogenates were then centrifuged at 10000 g for 30 minutes at +4° C. […] The residue was finally taken up into suspension in a final volume of KH2PO4/K2HPO4 buffer containing 20% (v/v) of glycerol (1 ml for 2 grams of tissue). The hepatic microsomal fractions obtained were divided into aliquots (500 μl), frozen rapidly in liquid nitrogen and kept frozen at −80° C. until use. concentration of microsomal proteins: 1 mg/ml; concentration of BSA (bovine serum albumin (BSA): 1 mg/ml; concentration of substrate (test compound): 5 μM; CYP and FMO co-factors: 1 mM NADPH; Phosphate buffer (pH 7.4): 10 mM. • The reaction was initiated by adding 1 mM of NADPH and incubating for 20 minutes at 37° C., with stirring. The reaction was stopped by adding 1 volume of cold acetonitrile. • Total incubation volume=300 μl

Data set [2] deals with P. falciparum FcM29-Cameroon strain. The data set can be described thus: Chemosensitivity test (radioactive micromethod, tritiated hypoxanthine incorporation), FcM29-Cameroon strain. The data set is classed as cell-based. The following applies: Plasmodium falciparum, 48 h, read-out: IC50 (concentration required to inhibit parasite growth by 50%). The procedure:
(§1) Strains of P. falciparum were cultivated continuously using Trager and Jensen's method (Science, 1976, 193, 673-675): the parasites were maintained in human red blood corpuscles (O±), diluted to a blood parasite level of 2% in RPMI 1640 medium supplemented with 25 mM Hepes+24 mM NaHCO3+2 mM L-glutamine and complemented with 5% human serum from all groups.
(§2) The parasites were incubated at 37° C., in a moist atmosphere and 5% CO2.
The antimalarial activity tests were carried out using the radioactive micromethod of Desjardins et al. (Antimicrob. Agents Chemother., 1979, 16, 710-718). Each molecule was tested in triplicate. The tests were carried out in 96 well microplates. The P. falciparum strains were cultured in RPMI 1640 solutions complemented with 5% human serum with haematocrit at 2% and a blood parasite level of 1.5%. For each test, the parasites were incubated with decreasing concentrations of test compounds for 48 h at 37° C., in a moist atmosphere and 5% CO2. The artemisinin and chloroquine diphosphate were used as reference molecules. The first dilution of the test compounds was carried out at 1 mg/ml in dimethylsulphoxide. The dilution series for the successive daughter solutions was also prepared in dimethylsulphoxide. Each daughter dilution was then diluted to 1/50th in RPMI 1640 complemented with 5% human serum, all of the dilutions being made at 37° C. Said dilutions were then added to the parasites in culture in the microplates. After adding the test compound, the parasites were cultured in RPMI 1640 with 5% human serum and 1% dimethylsulphoxide. Parasite growth was measured by the incorporation of tritiated hypoxanthine (added 24 h after beginning exposure to the test compound) and compared with the incorporation in the absence of the test compound (taken as 100%). The values for IC50 (concentrations required to inhibit parasite growth by 50%) were determined by plotting the percentage inhibition as a function of the logarithm of the dose using GraphPad Prism 4® processing software (GraphPad software, Inc., 5755 Oberlin Drive, #110, San Diego, Calif. 92121, USA).

Data set [3] has as its system P. falciparum FcB1-Columbia strain. The data set can be described thus: Chemosensitivity test (radioactive micromethod, tritiated hypoxanthine incorporation), FcB1-Columbia strain. The data set is classed as cell-based. The following applies: Plasmodium falciparum, read-out: IC50 (concentration required to inhibit parasite growth by 50%). The procedure:
as §1, §2
The antimalarial activity tests were carried out using the radioactive micromethod of Desjardins et al. (Antimicrob. Agents Chemother., 1979, 16, 710-718). Each molecule was tested in triplicate. The tests were carried out in 96 well microplates. The P. falciparum strains were cultured in RPMI 1640 solutions complemented with 5% human serum with haematocrit at 2% and a blood parasite level of 1.5%. For each test, the parasites were incubated with decreasing concentrations of test compounds for 48 h at 37° C., in a moist atmosphere and 5% CO2. The artemisinin and chloroquine diphosphate were used as reference molecules. The first dilution of the test compounds was carried out at 1 mg/ml in dimethylsulphoxide. […] Parasite growth was measured by the incorporation of tritiated hypoxanthine (added 24 h after beginning exposure to the test compound) and compared with the incorporation in the absence of the test compound (taken as 100%). […]

[4] abbreviates: FcM29-Cameroon strain (very strongly chloroquine-resistant), in human red blood corpuscles.
The mark [5] stands for this setting: human hepatic microsomes, from Table 2.

Consider `CC(C)C1=C[C@H]2OC3(CCC(NCCNc4ccnc5cc(Cl)ccc45)CC3)OO[C@H]2CC1` (some centres unmarked) [DU1302, reference compound], for which the Percentage metabolization in data set [1] was 95-100%. With `CC1(C)COC2(CCC(NC3CCC(Nc4ccnc5cc(Cl)ccc45)CC3)CC2)OO1` (stereo not drawn) [PA1103, N-(7-chloro-quinolin-4-yl)-N′-(3,3-dimethyl-1,2,5-trioxa-spiro[5.5]undec-9-yl)-cyclohexane-trans-1,4-diamine], the melting point was 176 °C (dec.). Moreover, the IC50 in data set [2] (setting [4]) came to 6 nM. The compound further came in with a Percentage metabolization in data set [1] of 11%. In data set [1] (setting [5]), the “times less degraded than chloroquine” value is recorded as “about 3 times” and the “times less degraded than the prior art compounds” value is reported as “about 10 times”. Besides, in data set [1] (in words), the “stability in human hepatic microsomes compared with the other test compounds” value was “much more stable”. On to `Clc1ccc2c(NCCN3CCC4(CC3)OCC3(CCCCC3)OO4)ccnc2c1` [PA1110, reference compound], for which the Percentage metabolization in data set [1] is 98%. For `CC1(C)COC2(CCC(N[C@@H]3CCCC[C@H]3Nc3ccnc4cc(Cl)ccc34)CC2)OO1` (stereo partly drawn) [PA1188, N-(7-chloro-quinolin-4-yl)-N′-(3,3-dimethyl-1,2,5-trioxa-spiro[5.5]undec-9-yl)-cyclohexane-trans-1,2-diamine], the IC50 in data set [2] (setting [4]) is 4 nM. As to `CC1(C)COC2(CCC(NC3CCC(Nc4cc(C(F)(F)F)nc5c(C(F)(F)F)cccc45)CC3)CC2)OO1` (stereo not drawn) [PA1251, N-(2,8-bis-trifluoromethyl-quinolin-4-yl)-N′-(3,3-dimethyl-1,2,5-trioxa-spiro[5.5]undec-9-yl)-cyclohexane-trans-1,4-diamine], the melting point was 168 °C (dec.). Same read-out and setting: the figure for `CC1(C)COC2(CCC(NC3CCC(Nc4ccnc5cc(C(F)(F)F)ccc45)CC3)CC2)OO1` (stereo not drawn) [PA1252, N-(3,3-dimethyl-1,2,5-trioxa-spiro[5.5]undec-9-yl)-N′-(7-trifluoromethyl-quinolin-4-yl)-cyclohexane-trans-1,4-diamine] is 166.5 °C (dec.); for `CN(C)c1ccc2nccc(NC3CCC(NC4CCC5(CC4)OCC(C)(C)OO5)CC3)c2c1` (stereo not drawn) [PA1253, N-(3,3-dimethyl-1,2,5-trioxa-spiro[5.5]undec-9-yl)-N′-(6-dimethylamino-quinolin-4-yl)-cyclohexane-trans-1,4-diamine] it is 193 °C (dec.). With `CC1OOC2(CCC(NC3CCC(Nc4ccnc5cc(Cl)ccc45)CC3)CC2)OC1C` (stereo not drawn) [PA1255, N-(7-chloro-quinolin-4-yl)-N′-(3,4-dimethyl-1,2,5-trioxa-spiro[5.5]undec-9-yl)-cyclohexane-trans-1,4-diamine], the melting point is 166 °C (dec.). Regarding `CC1(C)COC2(CCC(NC3CCC(Nc4ccnc5ccc(OC(F)(F)F)cc45)CC3)CC2)OO1` (stereo not drawn) [PA1305, N-(6-trifluoromethoxy-quinolin-4-yl)-N′-(3,3-dimethyl-1,2,5-trioxa-spiro[5.5]undec-9-yl)-cyclohexane-trans-1,4-diamine], the melting point is 165 °C (dec.). For the compound `C[C@@H]1CC[C@H]2[C@@H](C)C(=O)O[C@@H]3O[C@@]4(C)CC[C@@H]1[C@]32OO4` [artemisinin, reference compound], the IC50 in data set [3] (FcB1-Columbia strain (moderately chloroquine-resistant), in human red blood corpuscles, 48 h) worked out at 11 nM; in data set [2] (setting [4]), 5 nM. Compound `C[C@H]1[C@H](OC(=O)CCC(=O)O)O[C@@H]2O[C@@]3(C)CC[C@H]4[C@H](C)CC[C@@H]1[C@@]24OO3` [artesunate, reference compound] yielded a Percentage metabolization in data set [1] of 100%. Consider `CCN(CC)CCCC(C)Nc1ccnc2cc(Cl)ccc12` (centres unmarked) [chloroquine, reference compound], for which the IC50 in data set [3] (FCB1, 48 h) was 66 nM; in data set [2], 258 nM. The Percentage metabolization in data set [1] was 29%.
